Test results reported in PubChem BioAssay AID270 (DTP/NCI, 2004).
Values joined by “and” are separate entries in the source; they are usually repeats but may differ in a detail not shown here. Equal values may be shown once. Inconclusive results are not listed.

System: BDF1 mice, s.c. Lewis lung carcinoma, T/C %
Assay: NCI In Vivo Anticancer Drug Screen. Data for tumor model Lewis Lung Carcinoma (subcutaneous) in B6D2F1 (BDF1) mice
Method: The antitumor activity of compounds was measured in mice bearing transplantable tumors. Survival or tumor size were measured and the results are expressed as the measurement made in the treated group (T) divided by the measurement made in the vehicle treated control group (C). The tumor model used in this assay is Lewis Lung Carcinoma (subcutaneous) in B6D2F1 (BDF1) mice

[1] = endpoint: mean tumor weight, dose: 12.5 mg/kg/injection, schedule: Q01DX011 (ip), vehicle: saline, higher = larger tumour
[2] = endpoint: mean tumor weight, dose: 50.0 mg/kg/injection, schedule: Q01DX011 (ip), vehicle: saline, higher = larger tumour
[3] = endpoint: mean tumor weight, dose: 100.0 mg/kg/injection, schedule: Q01DX011 (ip), vehicle: saline, higher = larger tumour

CC(=O)c1c(O)c(C)c(O)c2c1OC1=CC(=O)C(C(C)=O)C(=O)C12C (centres undefined)
T/C (endpoint: median survival time, dose: 6.25 mg/kg/injection, schedule: Q01DX009 (ip), vehicle: gum acacia, higher = longer survival): 111 % of control
T/C (endpoint: median survival time, dose: 12.5 mg/kg/injection, schedule: Q01DX009 (ip), vehicle: gum acacia, higher = longer survival): 95 % of control and 110 % of control
T/C (endpoint: median survival time, dose: 25.0 mg/kg/injection, schedule: Q01DX009 (ip), vehicle: gum acacia, higher = longer survival): 101 % of control and 102 % of control and 123 % of control
T/C (endpoint: median survival time, dose: 50.0 mg/kg/injection, schedule: Q01DX009 (ip), vehicle: gum acacia, higher = longer survival): 101 % of control and 113 % of control and 115 % of control
T/C (endpoint: median survival time, dose: 100.0 mg/kg/injection, schedule: Q01DX009 (ip), vehicle: gum acacia, higher = longer survival): 98 % of control and 116 % of control and 123 % of control
T/C (endpoint: median survival time, dose: 200.0 mg/kg/injection, schedule: Q01DX009 (ip), vehicle: gum acacia, higher = longer survival): 106 % of control

C1CCNCC1
T/C (endpoint: mean tumor weight, dose: 6.25 mg/kg/injection, schedule: Q01DX011 (ip), vehicle: saline, higher = larger tumour): 87 % of control
T/C [1]: 87 % of control
T/C (endpoint: mean tumor weight, dose: 25.0 mg/kg/injection, schedule: Q01DX011 (ip), vehicle: saline, higher = larger tumour): 94 % of control
T/C [2]: 73 % of control and 95 % of control
T/C [3]: 83 % of control

COc1cc(NS(C)(=O)=O)ccc1Nc1c2ccc(Cl)cc2nc2c(OC)cccc12
T/C (endpoint: median survival time, dose: 2.3 mg/kg/injection, schedule: Q01DX009 (ip), vehicle: other, higher = longer survival): 118 % of control

O=C1N[C@@H]([C@H]2CC[C@H](Cl)CN2)C(=O)N[C@H]1[C@H]1CC[C@H](Cl)CN1
T/C (endpoint: median survival time, dose: 2.7 mg/kg/injection, schedule: Q01DX009 (ip), vehicle: saline, higher = longer survival): 102 % of control
T/C (endpoint: median survival time, dose: 4.4 mg/kg/injection, schedule: Q04DX003 (ip), vehicle: saline, higher = longer survival): 99 % of control
T/C (endpoint: median survival time, dose: 6.5 mg/kg/injection, schedule: Q04DX003 (ip), vehicle: saline, higher = longer survival): 105 % of control
T/C (endpoint: median survival time, dose: 9.0 mg/kg/injection, schedule: Q01DX001 (ip), vehicle: saline, higher = longer survival): 91 % of control
T/C (endpoint: median survival time, dose: 13.0 mg/kg/injection, schedule: Q01DX001 (ip), vehicle: saline, higher = longer survival): 101 % of control
T/C (endpoint: median survival time, dose: 20.0 mg/kg/injection, schedule: Q01DX001 (ip), vehicle: saline, higher = longer survival): 100 % of control

CCOCCCN
T/C (endpoint: mean tumor weight, dose: 44.0 mg/kg/injection, schedule: Q01DX011 (ip), vehicle: saline, higher = larger tumour): 106 % of control
T/C (endpoint: mean tumor weight, dose: 66.0 mg/kg/injection, schedule: Q01DX011 (ip), vehicle: saline, higher = larger tumour): 97 % of control
T/C [3]: 123 % of control
T/C (endpoint: mean tumor weight, dose: 148.0 mg/kg/injection, schedule: Q01DX011 (ip), vehicle: saline, higher = larger tumour): 101 % of control

O=S(=O)(O)C(Nc1ccccc1)c1ccccc1 (centres undefined)
T/C (endpoint: mean tumor weight, dose: 100.0 mg/kg/injection, schedule: Q01DX011 (ip), vehicle: water, higher = larger tumour): 51 % of control
T/C (endpoint: mean tumor weight, dose: 200.0 mg/kg/injection, schedule: Q01DX011 (ip), vehicle: water, higher = larger tumour): 71 % of control
T/C (endpoint: mean tumor weight, dose: 400.0 mg/kg/injection, schedule: Q01DX011 (ip), vehicle: water, higher = larger tumour): 27 % of control

COC(=O)C(N)CCCCNc1ccc2c(cc1=O)C(NC(C)=O)CCc1cc(OC)c(OC)c(OC)c1-2 (centres undefined)
T/C (endpoint: median survival time, dose: 25.0 mg/kg/injection, schedule: Q02DX009 (ip), vehicle: saline with Tween-80, higher = longer survival): 100 % of control
T/C (endpoint: median survival time, dose: 50.0 mg/kg/injection, schedule: Q02DX009 (ip), vehicle: saline with Tween-80, higher = longer survival): 94 % of control

O=[N+]([O-])c1ccc(CSc2ncnc3c2ncn3C2OC(CO)C(O)C2O)cc1 (centres undefined)
T/C (endpoint: median survival time, dose: 0.3 mg/kg/injection, schedule: Q01DX010 (ip), vehicle: saline with Tween-80, higher = longer survival): 93 % of control
T/C (endpoint: median survival time, dose: 3.0 mg/kg/injection, schedule: Q01DX010 (ip), vehicle: saline with Tween-80, higher = longer survival): 97 % of control
T/C (endpoint: median survival time, dose: 30.0 mg/kg/injection, schedule: Q01DX010 (ip), vehicle: saline with Tween-80, higher = longer survival): 106 % of control

CC[C@@]1(O)C[C@H](OC2CC(N(C)C)C(OC3CC(O)C(OC4CCC(=O)C(C)O4)C(C)O3)C(C)O2)c2c(cc3c(c2O)C(=O)c2c(O)cccc2C3=O)[C@H]1C(=O)OC (some centres undefined)
T/C (endpoint: median survival time, dose: 1.5 mg/kg/injection, schedule: Q01DX009 (ip), vehicle: Klucel (hydroxypropylcellulose) (HPC), higher = longer survival): 104 % of control

CN1C2CCC1CC(OC(=O)C(CO)c1ccccc1)C2 (centres undefined)
T/C [1]: 92 % of control
T/C [2]: 72 % of control
T/C [3]: 154 % of control
